Measured values as given in US11008346B2, “Beta-lactamase inhibitors” (priority 2014, dated 2021).
pIC50: −log10 of the molar value. Read-outs that look alike come from different tables or passages of the source.

How the values were obtained:
[1] = system: E. coli ESBL4 expressing CTX-M-15; assay: broth microdilution MIC, E. coli CTX-M-15; format: cell-based; conditions: Fixed CAZ (ceftazidime) 4 μg/mL
Summary of the method: (§1)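 Following CLSI broth microdilution, plates were read by eye for MIC after 16–20 h incubation at 37 °C. Each well held a fixed 4 μg/mL β-lactam overlay plus test compound serially halved from 32 to 0.25 μg/mL in CAMHB. Inocula came from 3–5 h broth cultures.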

[2] = system: P. aeruginosa Ps296 expressing VIM-2; assay: broth microdilution MIC, P. aeruginosa VIM-2; format: cell-based; conditions: for MIC of exemplary compounds in presence of fixed β-lactams, P. aerug. Ps296 VIM-2: Fixed Mero (meropenem) 4 μg/mL
Text: (§2) To determine the ability of test compounds to potentiate the inhibition of the growth of bacterial strains that produce beta-lactamase enzymes, classic cell based broth microdilution MIC assays were employed. Six bacteria strains producing beta-lactamase enzymes were used: E. coli expressing the Class A Extended Spectrum Beta-Lactamase (ESBL) CTX-M-15, E. cloacae expressing the Class C P99, K. pneumoniae expressing the Class A carbapenemase KPC-3, P. aeruginosa expressing the Class B carbapenemase VIM-2, K pneumoniae expressing the class A carbapenemase KPC-2 and the class B carbapenemase VIM-4, and S. aureus producing the Class A penicillinase PC-1. The assay was conducted in Cation Adjusted Mueller Hinton Broth (CAMHB, BD #212322, BD Diagnostic Systems, Sparks, Md.). Bacteria strains were grown for 3-5 hours in CAMBH broth. Test compounds were added to a microtiter plate in 2-fold serial dilutions in CAMHB in a final concentration range of 32 μg/mL to 0.25 μg/ml. An overlay of CAMHB containing a Beta-lactam was added to the compounds at a final static concentration of 4 μg/ml. […] In addition to the titration of test compounds the MICs of a panel of control beta-lactams is also tested to ensure the strains are behaving consistently from test to test. Once the test compound and antibiotics are added the plates can be inoculated according to CLSI broth microdilution method. After inoculation the plates are incubated for 16-20 hours at 37° C., then the Minimal Inhibitory Concentration (MIC) of the test compound is determined visually.
(§3) Using the methodology described above, examples of the current invention were evaluated for their ability to inhibit the growth of β-lactamase-producing bacteria in the presence of a β-lactam antibiotic.
(§4) Representative results are shown in Table 4 where A represents an MIC of the fixed β-lactam antibiotic in the presence of >32 µg/mL of a β-lactamase inhibitor of exemplary compounds, B represents the MIC in the presence of between 8 and 32 µg/mL of a β-lactamase inhibitor of exemplary compounds, and C represents the MIC in the presence of ≤4 µg/mL of a β-lactamase inhibitor of exemplary compounds. NT=Not Tested.

[3] = system: K. pneumoniae 156319 expressing KPC-3; assay: broth microdilution MIC, K. pneumoniae KPC-3; format: cell-based; conditions: for MIC of exemplary compounds in presence of fixed β-lactams, K.P. 156319 KPC-3: Fixed Mero (meropenem) 4 μg/mL
Summary of the method: as §1

OXA-1 β-lactamase = molecular target: T1, OXA-1 β-lactamase (Escherichia coli, UniProt P13661); assay: β-lactamase enzyme inhibition, OXA-1; format: biochemical; conditions: Nitrocefin 100 μM, 486 nm; 15 min at 37° C. preincubation; read-out: IC50 OXA-1 (Class D)
T1 construct: made in house; host or cells: E. coli BL21(DE3)
Summary of the method: (§5)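 IC50 values reflect inhibitor concentrations halving the initial hydrolysis rate relative to uninhibited wells. Untagged recombinant enzymes were exposed to inhibitor at 37° C for 15 min before substrate addition: 100 μM nitrocefin for OXA-1 and p99 AmpC, imipenem for KPC-2, cefotaxime for SHV-5, each monitored spectrophotometrically for 10 min.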

[4] = molecular target: T2, VIM-2 metallo β-lactamase (Pseudomonas aeruginosa, UniProt Q9K2N0); assay: β-lactamase enzyme inhibition, VIM-2; format: biochemical; conditions: Nitrocefin 100 μM, 486 nm; 15 min at 37° C. preincubation; read-out: IC50 VIM-2 (Class B)
T2 construct: made in house; host or cells: E. coli BL21(DE3)
Summary of the method: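 VIM-2 purified by Q sepharose anion exchange (50 mM Hepes pH 7.5, 0-600 mM NaCl gradient, two runs, >90% purity). Enzyme preincubated with inhibitor 15 min at 37° C; nitrocefin 100 μM final, absorbance at 486 nm followed 10 min. IC50 from initial hydrolysis rates versus inhibitor-free controls.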

[5] = system: E. cloacae 144200 expressing Class C P99 AmpC; assay: broth microdilution MIC, E. cloacae P99; format: cell-based; conditions: Fixed CAZ (ceftazidime) 4 μg/mL
Summary of the method: as §1

SHV-5 β-lactamase = molecular target: T3, SHV-5 β-lactamase (Klebsiella pneumoniae, UniProt P0A3M1); assay: β-lactamase enzyme inhibition, SHV-5; format: biochemical
T3 construct: made in house; host or cells: E. coli BL21(DE3)
Summary of the method: as §5

[6] = system: S. aureus MSSA-7 producing penicillinase PC-1; assay: broth microdilution MIC, S. aureus PC-1; format: cell-based; conditions: for MIC of exemplary compounds in presence of fixed β-lactams, S. aureus MSSA-7 PC-1: Fixed Pip (piperacillin) 4 μg/mL
Text: as §2, §3, §4

KPC-2 β-lactamase = molecular target: T4, KPC-2 β-lactamase (Klebsiella pneumoniae, UniProt Q9F663); assay: β-lactamase enzyme inhibition, KPC-2; format: biochemical
T4 construct: made in house; host or cells: E. coli BL21(DE3)
Summary of the method: as §5

[7] = system: K. pneumoniae A-1797 expressing KPC-2 and VIM-4; assay: broth microdilution MIC, K. pneumoniae KPC-2 and VIM-4; format: cell-based; conditions: for MIC of exemplary compounds in presence of fixed β-lactams, K.P. A-1797 KPC-2 VIM-4: Fixed Mero (meropenem) 4 μg/mL
Summary of the method: as §1

p99 AmpC β-lactamase = molecular target: T5, p99 AmpC β-lactamase (Enterobacter cloacae, UniProt P05364); assay: β-lactamase enzyme inhibition, p99 AmpC; format: biochemical
T5 construct: made in house; host or cells: E. coli BL21(DE3)
Summary of the method: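 Native untagged E. cloacae p99 AmpC was expressed in E. coli BL21(DE3) and purified by cation exchange and gel filtration. Enzyme was preincubated with inhibitor at 37°C for 15 min.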

[8] = imipenem substrate, 300 nm, 15 min at 37° C. preincubation, read-out: IC50 KPC-2 (Class A)
[9] = Klebsiella pneumoniae, read-out: MIC alone

T5 sequence (P05364 21-381): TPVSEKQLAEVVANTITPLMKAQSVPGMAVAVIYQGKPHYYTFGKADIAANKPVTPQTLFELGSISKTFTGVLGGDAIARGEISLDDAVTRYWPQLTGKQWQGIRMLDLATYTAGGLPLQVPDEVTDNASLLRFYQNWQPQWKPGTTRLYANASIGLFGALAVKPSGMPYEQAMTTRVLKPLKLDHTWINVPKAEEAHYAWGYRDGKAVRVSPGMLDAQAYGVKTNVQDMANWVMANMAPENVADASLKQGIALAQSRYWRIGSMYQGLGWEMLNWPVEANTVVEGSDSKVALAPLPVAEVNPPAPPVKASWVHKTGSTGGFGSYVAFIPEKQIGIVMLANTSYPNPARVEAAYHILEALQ
T4 sequence (Q9F663 25-293, looked up): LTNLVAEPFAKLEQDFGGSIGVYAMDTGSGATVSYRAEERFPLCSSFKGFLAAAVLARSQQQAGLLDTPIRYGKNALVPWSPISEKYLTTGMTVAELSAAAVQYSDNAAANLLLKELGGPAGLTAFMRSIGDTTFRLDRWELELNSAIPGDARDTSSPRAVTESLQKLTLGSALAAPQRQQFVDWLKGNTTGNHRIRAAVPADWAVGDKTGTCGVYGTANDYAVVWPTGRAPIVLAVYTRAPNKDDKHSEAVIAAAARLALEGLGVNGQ
T1 sequence (P13661 26-276): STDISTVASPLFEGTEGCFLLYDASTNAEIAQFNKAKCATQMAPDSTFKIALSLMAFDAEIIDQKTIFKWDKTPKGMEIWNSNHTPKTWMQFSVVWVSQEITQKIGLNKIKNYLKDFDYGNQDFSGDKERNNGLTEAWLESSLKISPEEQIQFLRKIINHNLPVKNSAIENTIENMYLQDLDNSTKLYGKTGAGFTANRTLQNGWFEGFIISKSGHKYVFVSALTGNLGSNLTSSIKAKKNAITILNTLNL
T3 sequence (P0A3M1 22-286): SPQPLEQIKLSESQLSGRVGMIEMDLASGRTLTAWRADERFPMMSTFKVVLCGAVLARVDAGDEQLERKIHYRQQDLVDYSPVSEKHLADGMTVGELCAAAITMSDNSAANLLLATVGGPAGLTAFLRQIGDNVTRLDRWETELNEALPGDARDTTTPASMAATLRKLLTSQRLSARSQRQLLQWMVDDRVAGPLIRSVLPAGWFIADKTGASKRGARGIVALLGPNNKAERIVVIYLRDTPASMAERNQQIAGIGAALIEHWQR

| MIC alone ([6]; partner antibiotic alone, S. aureus producing PC-1) [µg/mL] | SMILES | MIC of exemplary compounds in presence of fixed β-lactams, E. coli ESBL4 CTX-M-15 [1] | MIC of exemplary compounds in presence of fixed β-lactams, P. aerug. Ps296 VIM-2 [2] | MIC of exemplary compounds in presence of fixed β-lactams, K.P. 156319 KPC-3 [3] | pIC50 (OXA-1 β-lactamase) | pIC50 [4] | MIC of exemplary compounds in presence of fixed β-lactams, E. cl. 144200 p99 AmpC [5] | pIC50 (SHV-5 β-lactamase) | MIC of exemplary compounds in presence of fixed β-lactams, S. aureus MSSA-7 PC-1 [6] | pIC50 (KPC-2 β-lactamase; [8]) | MIC of exemplary compounds in presence of fixed β-lactams, K.P. A-1797 KPC-2 VIM-4 [7] | pIC50 (p99 AmpC β-lactamase) | pIC50 (KPC-2 β-lactamase) | MIC alone ([2]; partner antibiotic alone, P. aeruginosa expressing VIM-2) [µg/mL] | MIC [3, 9] [µg/mL] | MIC [7, 9] [µg/mL] |
| --- | --- | --- | --- | --- | --- | --- | --- | --- | --- | --- | --- | --- | --- | --- | --- | --- |
| – | CNC(=O)CCC(=O)N[C@H]1Cc2cccc(C(=O)O)c2OB1O [Example 19, (R)-2-Hydroxy-3-(3-methylcarbamoyl-propionylamino)-3,4-dihydro-2H-benzo[e][1,2]oxaborinine-8-carboxylic acid] | C (C represents the MIC in the presence of ≤4 g/mL of a β-lactamase inhibitor) | A (A represents an MIC of the fixed β-lactam antibiotic in the presence of >32 g/mL of a β-lactamase inhibitor) | C (C represents the MIC in the presence of ≤4 g/mL of a β-lactamase inhibitor) | > 7.00 | 5.00 to 6.00 | C (C represents the MIC in the presence of ≤4 g/mL of a β-lactamase inhibitor) | > 7.00 | B (B represents the MIC in the presence of between 8 and 32 g/mL of a β-lactamase inhibitor) | > 7.00 | B (B represents the MIC in the presence of between 8 and 32 g/mL of a β-lactamase inhibitor) | > 7.00 | – | – | – | – |
| 64 | CCN1CCN(C(=O)N[C@@H](C(=O)N[C@@H]2C(=O)N3[C@@H]2SC(C)(C)[C@@H]3C(=O)O)c2ccccc2)C(=O)C1=O [Piperacillin, piperacillin, reference compound] | – | – | – | – | – | – | – | – | – | – | – | – | – | – | – |
| – | O=C(CC(C(F)(F)F)C(F)(F)F)N[C@H]1Cc2cccc(C(=O)O)c2OB1O [Example 9, (R)-2-Hydroxy-3-(4,4,4-trifluoro-3-trifluoromethyl-butyrylamino)-3,4-dihydro-2H-benzo[e][1,2]oxaborinine-8-carboxylicacid] | B (B represents the MIC in the presence of between 8 and 32 g/mL of a β-lactamase inhibitor) | A (A represents an MIC of the fixed β-lactam antibiotic in the presence of >32 g/mL of a β-lactamase inhibitor) | B (B represents the MIC in the presence of between 8 and 32 g/mL of a β-lactamase inhibitor) | 6.00 to 7.00 | 4.00 to 5.00 | C (C represents the MIC in the presence of ≤4 g/mL of a β-lactamase inhibitor) | > 7.00 | – | 6.00 to 7.00 | A (A represents an MIC of the fixed β-lactam antibiotic in the presence of >32 g/mL of a β-lactamase inhibitor) | > 7.00 | – | – | – | – |
| – | CCC(=O)N[C@H]1Cc2cccc(C(=O)O)c2OB1O [Example 62, (R)-2-Hydroxy-3-propionylamino-3,4-dihydro-2H-benzo[e][1,2]oxaborinine-8-carboxylic acid] | C (C represents the MIC in the presence of ≤4 g/mL of a β-lactamase inhibitor) | B (B represents the MIC in the presence of between 8 and 32 g/mL of a β-lactamase inhibitor) | C (C represents the MIC in the presence of ≤4 g/mL of a β-lactamase inhibitor) | > 7.00 | 5.00 to 6.00 | C (C represents the MIC in the presence of ≤4 g/mL of a β-lactamase inhibitor) | 6.00 to 7.00 | C (C represents the MIC in the presence of ≤4 g/mL of a β-lactamase inhibitor) | – | B (B represents the MIC in the presence of between 8 and 32 g/mL of a β-lactamase inhibitor) | – | > 7.00 | – | – | – |
| – | O=C(CCC(F)(F)F)N[C@H]1Cc2cccc(C(=O)O)c2OB1O [Example 7, (R)-2-Hydroxy-3-(4,4,4-trifluoro-butyrylamino)-3,4-dihydro-2H-benzo[e][1,2]oxaborinine-8-carboxylic acid] | C (C represents the MIC in the presence of ≤4 g/mL of a β-lactamase inhibitor) | B (B represents the MIC in the presence of between 8 and 32 g/mL of a β-lactamase inhibitor) | C (C represents the MIC in the presence of ≤4 g/mL of a β-lactamase inhibitor) | > 7.00 | 5.00 to 6.00 | C (C represents the MIC in the presence of ≤4 g/mL of a β-lactamase inhibitor) | > 7.00 | – | – | A (A represents an MIC of the fixed β-lactam antibiotic in the presence of >32 g/mL of a β-lactamase inhibitor) | > 7.00 | > 7.00 | – | – | – |
| – | C[C@@H](O)[C@H]1C(=O)N2C(C(=O)O)=C(S[C@@H]3CN[C@H](C(=O)N(C)C)C3)[C@H](C)[C@H]12 [Meropenem, meropenem, reference compound] | – | – | – | – | – | – | – | – | – | – | – | – | 16 | > 128 | 64 |
| – | CC(=O)CCC(=O)N[C@H]1Cc2ccc(F)c(C(=O)O)c2OB1O [Example 47, (R)-7-Fluoro-2-hydroxy-3-(4-oxo-pentanoylamino)-3,4-dihydro-2H-benzo[e][1,2]oxaborinine-8-carboxylic acid] | C (C represents the MIC in the presence of ≤4 g/mL of a β-lactamase inhibitor) | – | C (C represents the MIC in the presence of ≤4 g/mL of a β-lactamase inhibitor) | > 7.00 | > 7.00 | C (C represents the MIC in the presence of ≤4 g/mL of a β-lactamase inhibitor) | > 7.00 | – | > 7.00 | C (C represents the MIC in the presence of ≤4 g/mL of a β-lactamase inhibitor) | > 7.00 | – | – | – | – |
| – | CC(C)(C#N)CC(=O)N[C@H]1Cc2cccc(C(=O)O)c2OB1O [Example 43, (R)-3-(3-Cyano-3,3-dimethyl-propionylamino)-2-hydroxy-3,4-dihydro-2H-benzo[e][1,2]oxaborinine-8-carboxylic acid] | C (C represents the MIC in the presence of ≤4 g/mL of a β-lactamase inhibitor) | – | C (C represents the MIC in the presence of ≤4 g/mL of a β-lactamase inhibitor) | > 7.00 | 6.00 to 7.00 | C (C represents the MIC in the presence of ≤4 g/mL of a β-lactamase inhibitor) | 6.00 to 7.00 | – | > 7.00 | B (B represents the MIC in the presence of between 8 and 32 g/mL of a β-lactamase inhibitor) | 6.00 to 7.00 | – | – | – | – |
